# Measured values: patent EP3991729A1, “USE OF AMLEXANOX IN PREPARING ANTI-HEPATITIS VIRUS DRUG” (Marine Biomedical Research Institute Of Qingdao Co., Ltd., priority 2019, dated 2020)
# Assays:
# hepatitis B virus [1] = assay: Mouse venous hypertension model (genotype B), HBsAg in peripheral blood by ELISA; assay type: in vivo, Wild-type mice (C57/B6)
# Procedure: . On the 9th day after infection, about 100µl/mouse of blood was harvested from the tail to separate serum, and the concentration of HBsAg in peripheral blood was detected by ELISA. The OD value at 450nm was measured on a microplate reader.
# . On the 9th day after infection, about 100µl of blood was harvested from each animal, serum was separated, and the concentration of HBsAg in peripheral blood was measured by ELISA.
# hepatitis B virus [2] = assay: Mouse venous hypertension model (genotype B), core antigen (HBeAg) in peripheral blood by ELISA; assay type: in vivo, Wild-type mice (C57/B6); conditions: 50 mg/kg/day oral gavage, 9th day after infection, Figure 4
# Procedure: . On the 9th day after infection, about 100µl/mouse of blood was harvested from the tail to separate serum. The concentration of hepatitis B virus core antigen (HBeAg) in peripheral blood was measured by ELISA. The OD value at 450nm was measured on a microplate reader.
# hepatitis B virus [3] = assay: Mouse venous hypertension model (genotype B), HBV genomic DNA in liver by fluorescence quantitative PCR; assay type: in vivo, Wild-type mice (C57/B6); conditions: 50 mg/kg/day oral gavage, 11th day after infection, Figure 5
# Text: . On the 11th day after infection, the mice were sacrificed, the livers of the mice were isolated, DpnI was transferred to exclude source DNA, and HBV genomic DNA in the livers of the mice was detected by fluorescence quantitative PCR (n=5).
# [4] = test system: subtype A hepatitis B virus; assay: Mouse venous hypertension model (genotype A), HBeAg in peripheral blood by ELISA; assay type: in vivo, Wild-type mice (C57/B6); conditions: twice a day, oral gavage, 9th day after infection, Figure 8
# Procedure: On the 9th day after infection, about 100µl of blood was harvested from each animal, serum was separated, and the concentration of HBeAg in peripheral blood was measured by ELISA.
# hepatitis B virus [5] = assay: HBV replication in HepAD38 cell model, qPCR of cccDNA, core particle DNA and supernatant HBV DNA; assay type: cell-based; conditions: 20µM, 10µM and 5µM, HepAD38, 96 and 144 hours, Figures 10, 11, 12
# Procedure: 2×10^5 HepAD38 cells that were stably expressing HBV with good growth status were seeded in collagen pretreated 6-well plates, and the corresponding concentrations of the test substances were added: final concentration of 1µM for entecavir (ETV) and a final concentration of 20µM, 10µM, and 5µM for amlexanox (AML), respectively. Two groups of controls were also set up, one with solvent only (DMF) and one with antibiotic only (tetracycline). Three replicate wells were set for all groups. After 96 hours and 144 hours of test article addition, 500 µL of cell culture supernatant was used to extract DNA from the supernatant, and the amount of HBV DNA in the supernatant was detected by qPCR. After 144h, cells were harvested and lysed in Lysis buffer A (50 mM Tris-HCl, pH 7.4, 1 mM EDTA, and 1% NP-40). The supernatant and pellet of the lysates were collected, respectively, from which DNA was extracted and quantified by quantitative PCR. Linear DNA was removed by DNA exonuclease (NEB) after DNA extraction from the cell lysate pellet, so only circular DNA (cccDNA) was examined (Figure 10). Viral DNA in the supernatant of cell lysates was defined as core particle DNA (Figure 11).
# hepatitis B virus [6] = assay: HBsAg in culture supernatant of HepAD38 cells, ELISA; assay type: cell-based; conditions: 10µM and 5µM, HepAD38, 24h, 48h, 96h, 144h, Figure 13
# Procedure: Two groups of controls were also set up, one with only solvents (DMF) and one with antibiotics (tetracycline). Three replicate wells were set up for all experiments. 500µL of culture supernatant was taken at 24h, 48h, 96h, and 144h after adding the test article for ELISA to detect HBsAg concentration (Figure 13).
# hepatitis B virus [7] = assay: HBV core antigen (HBeAg) in culture supernatant of HepAD38 cells, ELISA; assay type: cell-based; conditions: 16µM to 2µM, HepAD38, 24h to 144h, Figure 14
# Procedure: A solvent-only control group (DMF) was also set up. Three replicate wells were set up for all experiments. 500µL of culture supernatant was taken at 24h, 48h, 72h, 96h, and 144h after adding the test article for ELISA to detect HBV core antigen (HBeAg) concentration.
# 3TC/ETV-resistant HBV = assay: Mouse venous hypertension model, serum HBsAg by ELISA (Example 13, Figure 17); assay type: in vivo, male C57 mice; conditions: 150 mg/day (converted adult dose, 22.8 mg/kg/day in mice), oral gavage, five days
# Text: The specific method was based on the instructions of the ELISA kit.
# [8] = test system: HepG2, HCT-116, Hela, A549, MCF7, MKN45, THP-1, Huh7, and 293 cells; assay: Cytotoxicity test, MTT assay, summary over the nine kinds of cells; assay type: cell-based; conditions: 72h
# Procedure: […]. Various cells in the logarithmic growth phase were seeded in 96-well plates at 6,000 cells/well and cultured for 24h. […]. The dosage of DMSO in the solvent control group was based on the maximum dose of 0.1% used in the test group, with four duplicate wells for each concentration. Cells were treated with the drug for 72h and then added with 20µL 5 mg/mL MTT, cultured at 37°C for 4h, after added 100 µ L triple solution (10% SDS, 5% isobutanol, 12 mM hydrochloric acid), 96-well cell culture plate was placed in an incubator containing 5% CO2 at 37 ± 1°C overnight. OD value at 570nm was measured on a microplate reader.
# The inhibition rate of tumor cell growth was calculated according to the following formula: Inhibition rate(%) = [(OD570controlwell−OD570dosewell)/OD570controlwell] × 100. [formula]
# B and T cells = assay: Immune cells in blood of HBV-infected mice, flow cytometry; conditions: 4, 8, 16 mg/kg/time, twice a day, oral gavage, day 9, Figure 19
# Procedure: (§1) Six-week-old male C57 mice were rapidly injected with 10µg/mouse of viral genomic DNA (genotype A) by tail vein injection in a short period. Viral infection was established using a venous hypertension model and randomly divided into groups. […] At the same time, a blank control was set up, and oral administration in uninfected mice was equivalent to the model group.
# On day 9, mice were sacrificed to collect blood stained with flow antibody after fission red. All cells were treated with anti-FcγRIII/ II (purchased from BD Biosciences) in PBS for 30 min. CD3e-FITC (purchased from BD Biosciences). CD4-PE, CD8a-APC-Vio770, and CD34-FITC (GE). CD19-APC, CD11b-PE-Cyanine7, and CD117-efflor 450 (purchased from eBioscience). After staining, the samples were suspended using 500µL PBS and analyzed by BD Aria III flow cytometer.
# hepatitis B virus [9] = assay: HBsAg in culture supernatant of HBV DNA-transfected HepG2 cells, ELISA; conditions: 10µM, HepG2, 96h after transfection, Figure 2
# Procedure: Hepatocyte HepG2 cells with good growth status were seeded in 6-well plates at 10^6 cells/well and, after being left overnight, 2µg of linear HBV viral genomic DNA (genotype B) was transfected into each well using lipofectamine 2000 to establish a viral infection cell model. […] An equal volume of DMSO (1/1000, v/v) was added to the control group. Forty-eight hours after transfection, cells from each well were passaged into one 6cm culture plate. After transfection, HBsAg levels in the culture supernatant were quantified by ELISA 96h.
# Well-grown hepatocyte HepG2 cells 10^6 cells/well were seeded in 6-well plates, and after overnight, 2µg of linear HBV viral genomic DNA (genotype B) was transfected per well using Lipofectamine 2000. […] An equal volume of DMSO (1/1000, v/v) was added to the control group. Forty-eight hours after transfection, cells from each well were passaged into one 6cm culture plate. HBV surface antigen (HBsAg) in the culture medium was detected by ELISA 96h after transfection.
# hepatitis B virus [10] = assay: Mouse venous hypertension model (genotype A), serum HBsAg by ELISA, dose groups (Example 12); conditions: dose higher than 50 mg/day (converted adult dose), once a day oral gavage, seven days of administration, Figure 15
# Procedure: as §1
# (§2) On days 1, 3, and 7 of administration, an appropriate amount of blood was collected from the tail vein of mice in each group. On day 9, the remaining peripheral blood was collected after the mice were sacrificed. All blood samples were centrifuged to obtain serum, divided into two portions. One was used to detect the concentration of HBsAg by ELISA, and the other was used to detect the enzyme activity of alanine aminotransferase (ALT) by alanine aminotransferase kit (colorimetric method) (Nanjing Jiancheng Bioengineering Institute).
# [11] = test system: alanine aminotransferase (ALT); assay: Mouse venous hypertension model (genotype A), serum alanine aminotransferase (ALT) activity, colorimetric kit; conditions: 25-200 mg/day (converted adult dose), once a day oral gavage, Figure 16
# Procedure: as §1, §2
smiles,measurement,setting,value
"CC(C)c1ccc2oc3nc(N)c(C(=O)O)cc3c(=O)c2c1 [amlexanox, Amlexanox]",concentration of HBsAg in peripheral blood,"hepatitis B virus [1]; 50 mg/kg/day oral gavage, 9th day after infection, Figure 3","reduced HBsAg levels in a mouse model of venous hypertension, and its effect is better than that of lamivudine"
same,"dose of significant effect (inhibition of hepatitis B virus, HBsAg)","hepatitis B virus [1]; oral gavage, 9th day after infection, Figure 7",10 to 50 mg/kg
same,"concentration of HBsAg in peripheral blood, dose-response relationship","hepatitis B virus [1]; oral gavage, daily dose as in Figure 7, 9th day after infection",its ability to inhibit the hepatitis B virus in the venous hypertension mouse model is enhanced
same,concentration of hepatitis B virus core antigen (HBeAg) in peripheral blood,hepatitis B virus [2],"reduced hepatitis B virus core antigen levels in a mouse model of venous hypertension, and its effect was comparable to that of lamivudine"
same,HBV genomic DNA in the livers of the mice,hepatitis B virus [3],"can significantly inhibit the load of viral DNA, and its effect is not lower than that of clinically used nucleotide-like drugs lamivudine and entecavir"
same,concentration of HBeAg in peripheral blood,[4]; 16 mg/kg/time,still effective
same,"concentration of HBeAg in peripheral blood, dose-response relationship","[4]; 4, 8 and 16 mg/kg/time",its ability to inhibit hepatitis B virus is enhanced in a mouse model of venous hypertension
same,"HBV DNA (cccDNA, core particle DNA, viral DNA in cell culture supernatant)",hepatitis B virus [5],significantly inhibits hepatitis B virus replication in the HepAD38 cell model
same,HBsAg concentration in culture supernatant,hepatitis B virus [6],significantly reduce HBsAg level
same,HBV core antigen (HBeAg) concentration in culture supernatant,hepatitis B virus [7],significantly reduce HBsAg level and core antigen level
same,HBsAg level in the blood,3TC/ETV-resistant HBV,significantly decreased
same,cytotoxicity,"[8]; nine kinds of cells, below the concentration of 50 µM",no obvious cytotoxicity
same,cytotoxicity,"[8]; remaining five cells (other than MKN45, HCT-116, MCF7, Huh7), 100 µM",no significant cytotoxicity
same,effect on immune cells (B and T cells) in blood,B and T cells,"had an inhibitory effect on both B and T cells, and the inhibitory effect was dose-dependent"
same,HBsAg levels in the culture supernatant,hepatitis B virus [9],"reduces HBsAg levels in cell models, and its effect is superior to that of existing clinical drugs"
same,concentration of HBsAg in serum,hepatitis B virus [10],significantly reduced surface antigen (HBsAg) levels
same,enzyme activity of alanine aminotransferase (ALT) in serum,[11],can effectively reduce alanine aminotransferase activity
